Test results taken from US20230126447A1, “OCULAR DRUG DEPOT FOR COMPLEMENT-MEDIATED DISORDERS” (priority 2020, published 2023).
Read-outs that look alike come from different tables or passages of the source.

Legend:
AP activity = experiment: Wieslab assay (AP activity in vitro); assay type: biochemical
[1] = Ocular tissue distribution and pharmacokinetics, 15 mg/kg BID oral, nonpigmented New Zealand White rabbits (Example 7); assay type: in vivo
Procedure: For Groups 2 through 4, blood (approximately 2 mL) was collected via a jugular vein using a syringe and needle and was transferred into tubes containing K2EDTA at approximately 12 hours after the a.m. dose on Day 15 from the two animals designated for sacrifice at approximately 240 hours after the a.m. dose on Day 15. For Groups 2 through 4, two animals/group/time point were sacrificed via an overdose of sodium pentobarbital prior to dosing on Day 15 and at approximately 1, 6, 24, 96, 168, and 240 hours after the a.m. dose on Day 15. Blood (approximately 2 mL) was collected from all animals at sacrifice into tubes containing K2EDTA via exsanguination (cardiac puncture). Blood was maintained on wet ice, in chilled cryoracks, or at approximately 5° C. prior to centrifugation to obtain plasma. Centrifugation began within 1 hour of collection (Deviation). Plasma was placed into 96-well tubes with barcode labels. Plasma was maintained on dry ice prior to storage at approximately −70° C. At the time of sacrifice, both eyes were enucleated, and the following tissues were collected. Each eye was flash-frozen in liquid nitrogen for 15 to 20 seconds. The enucleated eye was placed on dry ice or stored at approximately −70° C. for at least 2 hours. Within approximately 3 days, the frozen matrices were collected as right and left eyes for each matrix into the specific tube type listed. At the time of frozen collection, the ocular tissues were rinsed with saline and blotted dry (as appropriate), weighed, and placed on dry ice. All ocular tissues were collected as single samples.

[2] = Ocular tissue and plasma pharmacokinetics, 50 mg/kg BID oral, New Zealand White rabbits (Example 4); assay type: in vivo; details: one-hour post-dose on Day 15
Procedure: Study design, including group designation and dose levels, are outlined in Table 15. […] Two Dutch Belted rabbits received vehicle only oral gavage doses for tolerability assessment. […] The dose volume was 5 mL/kg/dose for all groups. Safety was assessed with toxicological and ophthalmic examinations, including slit lamp biomicroscopy, indirect ophthalmoscopy, rebound tonometry, and ultrasonic corneal pachymetry. […] Plasma, vitreous humor (VH), retina, choroid-retina pigmented epithelium (Choroid-RPE), optic nerve (ON), and iris-ciliary body (I-CB) were analyzed by LC-MS/MS to quantify test article concentrations. The lower limit of quantitation (LLOQ) in plasma and vitreous humor was 1.0 ng/mL.

[3] = Ocular tissue and plasma pharmacokinetics, 15 mg/kg oral, New Zealand White rabbits (Example 3/5); assay type: in vivo
Procedure: Study design including group designation and dose levels are outlined in Table 4. […] Fifteen Dutch Belted and 5 New Zealand White rabbits were used as un-dosed controls. […] The dose volume was 5 mL/kg/dose for all groups. Safety was assessed with toxicological and ophthalmic examinations including slit lamp biomicroscopy, indirect ophthalmoscopy, rebound tonometry, and ultrasonic corneal pachymetry.
Analyst® software (Version 1.6.2) was used to capture the LC-MS/MS data and integrate the peak areas. Calibration standards and QCs were prepared in a blank solution of 75%:25% acetonitrile:water (v:v), ranging from 10 ng/mL to 10,000 ng/mL. Matrix matched standard and QC samples were prepared by mixing 2 μL of standard or QC sample above with 18 μL of appropriate ocular tissue or plasma. The final calibration standards ranged from 1 ng/mL to 1000 ng/mL. All plasma, retina, choroid-RPE, optic nerve, and vitreous humor samples were analyzed in a single run. Iris-ciliary body samples were analyzed in two runs due to a need for sample dilution. […] Dilution QCs were prepared at 5000 ng/mL where appropriate. Two sets of standards were used to bracket the analytical run at the beginning and end of the run. Three sets of QCs were included the analytical runs. All concentrations in ocular matrices are reported as ng/g based on the assumed density of 1 g/mL.
1, 6, 24, 96, 168, and 240 hours post-dose on Day 15, with the eyes collected at the same time as blood sampling. A single blood sample was taken from Groups 4 and 5 at sacrifice. Plasma, vitreous humor (VH), retina, choroid-retina pigmented epithelium (Choroid-RPE), optic nerve (ON), and iris-ciliary body (I-CB) were analyzed by LC-MS/MS to quantify test article concentrations. The lower limit of quantitation (LLOQ) in plasma and vitreous humor was 1.0 ng/mL. The LLOQ was 6.0 ng/g in retina, Choroid-RPE, and I-CB and the optic nerve LLOQ was 15 ng/g, assuming tissue density of 1 g/mL where relevant.
Study design including group designation and dose levels are outlined in Table 18.

[4] = Choroid-RPE (OU), male NZW rabbits, Group 4, Day 15, 15 mg/kg/dose BID oral (30 mg/kg/day)
[5] = ICB (OU), male NZW rabbits, Group 4, Day 15, 15 mg/kg/dose BID oral (30 mg/kg/day)
[6] = NZW rabbits, Day 15, 15 mg/kg BID, 96 hr
[7] = NZW rabbits, Day 15, 15 mg/kg BID, 168 hr
[8] = NZW rabbits, Day 15, 15 mg/kg BID, 240 hr
[9] = New Zealand White, rabbit, choroid-RPE, oral, NZW rabbits, Day 15, 15 mg/kg BID, read-out: Mean Choroid-RPE Concentration
[10] = New Zealand White, rabbit, iris-ciliary body, oral, NZW rabbits, Day 15, 15 mg/kg BID, read-out: Mean Iris-Ciliary Concentration
[11] = New Zealand White, rabbit, plasma, oral, NZW rabbits, Day 15, 15 mg/kg BID, read-out: Mean Plasma Concentration
[12] = New Zealand White, rabbit, retina, oral, NZW rabbits, Day 15, 15 mg/kg BID, read-out: Mean Retina Concentration
[13] = New Zealand White, rabbit, plasma, male NZW rabbits, Group 4, Day 15, 15 mg/kg/dose BID oral (30 mg/kg/day)
[14] = Retina (OU), male NZW rabbits, Group 4, Day 15, 15 mg/kg/dose BID oral (30 mg/kg/day)
[15] = plasma, male NZW rabbits, Group 4, Day 15, 15 mg/kg/dose BID oral (30 mg/kg/day)

CC(=O)c1nn(CC(=O)N2C[C@H](F)C[C@H]2C(=O)Nc2cccc(Br)n2)c2ccc(-c3cnc(C)nc3)cc12 [Compound 1, (2S,4R)-1-(2-(3-Acetyl-5-(2-methylpyrimidin-5-yl)-1H-indazol-1-yl)acetyl)-N-(6-bromopyridin-2-yl)-4-fluoropyrrolidine-2-carboxamide] gave an IC50 (AP activity) of 26 nM, an AUC0-12 [1, 4] of 1440 ng·h/g and an AUC0-240 [1, 4] of 2370 ng·h/g. The AUC(0-24) [1, 4] was 1830 ng·h/g, the AUC(0-t) [1, 4] was 1830 ng·h/g and the Ctrough [1, 4] was 50.7 ng/g. The “DN AUC0-12” value [1, 4] was 95.9 (h*ng/g)/(mg/kg/dose), the “DN AUC0-24” value [1, 4] was 122 (h*ng/g)/(mg/kg/day) and the “DN AUC0-240” value [1, 4] was 158 (h*ng/g)/(mg/kg/day). For the same compound, the “DN Cmax” value [1, 4] was 19.8 (ng/g)/(mg/kg/day, the AUC0-12 [1, 5] was 356 ng·h/g and the AUC(0-24) [1, 5] was 453 ng·h/g. The AUC(0-t) [1, 5] was 453 ng·h/g, the Ctrough [1, 5] was 14.6 ng/g and the “DN AUC0-12” value [1, 5] was 23.7 (h*ng/g)/(mg/kg/dose). For the same compound, the “DN AUC0-24” value [1, 5] was 30.2 (h*ng/g)/(mg/kg/day), the “DN Cmax” value [1, 5] was 4.33 (ng/g)/(mg/kg/day) and the “Mean Choroid-RPE concentration” value [1, 6] was “BLQ”. For the same compound, the “Mean plasma concentration” value [1, 6] was “BLQ”, the “Mean retina concentration” value [1, 6] was “BLQ” and the “Mean Choroid-RPE concentration” value [1, 7] was “BLQ”. The “Mean plasma concentration” value [1, 7] was “BLQ”, the “Mean retina concentration” value [1, 7] was “BLQ” and the “Mean Choroid-RPE concentration” value [1, 8] was “BLQ”. The “Mean plasma concentration” value [1, 8] was “BLQ”, the “Mean retina concentration” value [1, 8] was “BLQ” and the concentration at 0 h [1, 9] was 40.3 ng/g. The concentration at 1 h [1, 9] was 296 ng/g, the concentration at 6 h [1, 9] was 68.6 ng/g and the concentration at 24 h [1, 9] was 14.9 ng/g. For the same compound, the Tmax ([1]; New Zealand White, rabbit, choroid-retinal pigment epithelium (choroid-RPE), Choroid-RPE (OU), male NZW rabbits, Group 4, Day 15, 15 mg/kg/dose BID oral (30 mg/kg/day)) was 1 h, the Tmax ([1]; New Zealand White, rabbit, iris-ciliary body (ICB), ICB (OU), male NZW rabbits, Group 4, Day 15, 15 mg/kg/dose BID oral (30 mg/kg/day)) was 1 h and the Cmax ([1]; New Zealand White, rabbit, iris-ciliary body (ICB), ICB (OU), male NZW rabbits, Group 4, Day 15, 15 mg/kg/dose BID oral (30 mg/kg/day), read-out: Cmax) was 64.9 ng/g. It also gave a concentration at 1 h [1, 10] of 64.9 ng/g, a concentration at 6 h [1, 10] of 21.2 ng/g and a concentration at 24 h [1, 10] of 1.6 ng/g. For the same compound, the concentration at 0 h [1, 11] was 53.8 ng/mL, the concentration at 1 h [1, 11] was 558 ng/mL and the concentration at 6 h [1, 11] was 179 ng/mL. The concentration at 12 h ([1]; New Zealand White, rabbit, plasma, oral, NZW rabbits, Day 15, 15 mg/kg BID, 12 hr) was 82.2 ng/mL, the concentration at 24 h [1, 11] was 11.7 ng/mL and the concentration at 0 h [1, 12] was 36.3 ng/g. The concentration at 1 h [1, 12] was 248 ng/g, the concentration at 6 h [1, 12] was 86.1 ng/g and the concentration at 24 h [1, 12] was 9.18 ng/g. For the same compound, the Tmax ([1]; New Zealand White, rabbit, Retina (OU), male NZW rabbits, Group 4, Day 15, 15 mg/kg/dose BID oral (30 mg/kg/day)) was 1 h, the Tmax [1, 13] was 1 h and the half-life [1, 13] was 4.53 h. The AUC0-12 [1, 14] was 1420 ng·h/g, the AUC0-240 [1, 14] was 2160 ng·h/g and the AUC(0-24) [1, 14] was 1830 ng·h/g. The AUC(0-t) [1, 14] was 1830 ng·h/g, the Ctrough [1, 14] was 60.4 ng/g and the “DN AUC0-12” value [1, 14] was 94.4 (h*ng/g)/(mg/kg/dose). The “DN AUC0-24” value [1, 14] was 122 (h*ng/g)/(mg/kg/day), the “DN AUC0-240” value [1, 14] was 144 (h*ng/g)/(mg/kg/day) and the “DN Cmax” value [1, 14] was 16.5 (ng/g)/(mg/kg/day). The AUC(0-t) ([1]; male, New Zealand White, rabbit, plasma, po, 15 mg/kg, plasma, male NZW rabbits, Group 4, Day 15, 15 mg/kg/dose BID oral (30 mg/kg/day), read-out: AUC0-12) was 2930 ng·h/mL, the AUC(0-t) ([1]; male, New Zealand White, rabbit, plasma, po, 15 mg/kg, plasma, male NZW rabbits, Group 4, Day 15, 15 mg/kg/dose BID oral (30 mg/kg/day), read-out: AUC0-240) was 3910 ng·h/mL and the AUC(0-t) ([1]; male, New Zealand White, rabbit, plasma, po, 15 mg/kg, plasma, male NZW rabbits, Group 4, Day 15, 15 mg/kg/dose BID oral (30 mg/kg/day), read-out: AUC0-t) was 3490 ng·h/mL. For the same compound, the Cmax [1, 15] was 558 ng/mL, the Ctrough [1, 15] was 82.2 ng/mL and the “DN AUC0-12” value [1, 15] was 195 (h*ng/mL)/(mg/kg/dose). The “DN AUC0-24” value [1, 15] was 233 (h*ng/mL)/(mg/kg/day), the “DN AUC0-240” value [1, 15] was 261 (h*ng/mL)/(mg/kg/day) and the “DN Cmax” value [1, 15] was 37.2 (ng/mL)/(mg/kg/day). The “Choroid-RPE tissue exposure in NZW versus DB rabbit” value [2] was “approximately five-fold lower”, the “Mean Vitreous Humor concentration” value ([3]; NZW rabbit, 15 mg/kg single oral dose, Day 1, 240 h) was “BLQ^a” and the “Mean retina concentration” value ([3]; NZW rabbits, Day 1, 15 mg/kg single dose, 96 hr) was “BLQ”. The concentration at 0 h ([3]; New Zealand White, aqueous humor, NZW rabbit, 15 mg/kg single oral dose, Day 1, 0 h) was 6.14 ng/mL, the concentration at 1 h ([3]; New Zealand White, iris-ciliary body, NZW rabbit, 15 mg/kg single oral dose, Day 1, 1 h) was 117 ng/g and the MRT last ([3]; New Zealand White, po, Vitreous Humor, NZW rabbit, 15 mg/kg single dose, Day 1) was 2.24 h. The Cmax ([3]; New Zealand White, po, retina, NZW rabbit, 15 mg/kg single dose, Day 1) was 200 ng/g, the Tlast ([3]; Vitreous Humor, NZW rabbit, 15 mg/kg single dose, Day 1) was 6 h and the AUClast ([3]; plasma, NZW rabbit, 15 mg/kg single dose, Day 1) was 1430 ng·h/mL.
